Assays:
HABS [1] = astrocyte control; assay: area under dose-response curve of % growth inhibition (log2 RLU vs DMSO / staurosporine), 1e-11 to 1e-4 M (% x log10 M); higher = more growth inhibition
Outline: (§1)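 A 10-point threefold dilution series, mean top concentration 35 μM, was applied in triplicate to patient-derived pHGG/DIPG lines and astrocytes on 1% Geltrex-coated 384-well plates for 7 days (3 days for iAstro) at 37 °C, 5% CO2. Per-plate % activity between solvent and positive controls was calculated from log2-transformed CellTiter-Glo luminescence. Area under the curve followed from the trapezoid rule on a log-logistic fit, or on a smoothing spline when the sigmoid fit failed.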

DIPGX37 [2] = H3.3 K27M diffuse intrinsic pontine glioma line; assay: as above
Outline: as §1

DIPGX9 [3] = diffuse intrinsic pontine glioma line; assay: as above
Outline: as §1

SUDIPGXIII [4] = diffuse intrinsic pontine glioma line; assay: as above
Outline: as §1

HGGX6 [5] = H3.3 G34R paediatric high-grade glioma line; assay: as above
Outline: as §1

HGGX42 [6] = H3.3 G34R paediatric high-grade glioma line; assay: maximal growth inhibition (yFin) relative to DMSO / staurosporine; higher = more efficacious
Outline: (§2)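 A pin tool was used to add a 10-point threefold dilution series (mean top concentration 35 μM), in triplicate, to patient-derived pHGG/DIPG cell lines and astrocyte controls seeded on 384-well plates coated with 1% Geltrex. After 7 days at 37 °C and 5% CO2 (3 days for iAstro), CellTiter-Glo luminescence was log2-transformed, normalised on each plate to % activity relative to negative (solvent) and positive control wells, and pooled. EC50 and maximal response (yFin) were read from the three- or four-parameter log-logistic fit with the lowest AICc.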

HGGX39 [7] = paediatric high-grade glioma line; assay: as above
Outline: as §2

SUDIPGIV [8] = diffuse intrinsic pontine glioma line; assay: as above
Outline: as §2

HABS [9] = assay: as above
Outline: as §2

DIPGX37 [10] = assay: as above
Outline: as §2

SUDIPGVI [11] = diffuse intrinsic pontine glioma line; assay: as above
Outline: as §2

DIPGX9 [12] = assay: as above
Outline: as §2

SUDIPGXIII [13] = assay: as above
Outline: as §2

DIPGX7 [14] = H3.3 K27M diffuse intrinsic pontine glioma line; assay: as above
Outline: as §2

DIPGX29 [15] = H3.3 K27M diffuse intrinsic pontine glioma line; assay: as above
Outline: as §2

HGGX2 [16] = paediatric high-grade glioma line; assay: as above
Outline: as §2

HGGX6 [17] = assay: as above
Outline: as §2

SUDIPGXVII [18] = diffuse intrinsic pontine glioma line; assay: as above
Outline: as §2

SUDIPGXIX [19] = diffuse intrinsic pontine glioma line; assay: as above
Outline: as §2

iAstro [20] = astrocyte control; assay: as above
Outline: as §2

SUDIPGXXI [21] = diffuse intrinsic pontine glioma line; assay: as above
Outline: as §2

HGGX42 [22] = assay: EC50 (inflection of fitted growth-inhibition curve) (log10 M)
Outline: as §2

HGGX39 [23] = assay: as above
Outline: as §2

SUDIPGIV [24] = assay: as above
Outline: as §2

HABS [25] = assay: as above
Outline: as §2

DIPGX37 [26] = assay: as above
Outline: as §2

SUDIPGVI [27] = assay: as above
Outline: as §2

DIPGX9 [28] = assay: as above
Outline: as §2

SUDIPGXIII [29] = assay: as above
Outline: as §2

DIPGX7 [30] = assay: as above
Outline: as §2

DIPGX29 [31] = assay: as above
Outline: as §2

HGGX2 [32] = assay: as above
Outline: as §2

HGGX6 [33] = assay: as above
Outline: as §2

SUDIPGXVII [34] = assay: as above
Outline: as §2

SUDIPGXIX [35] = assay: as above
Outline: as §2

iAstro [36] = assay: as above
Outline: as §2

SUDIPGXXI [37] = assay: as above
Outline: as §2

Structure (SMILES)	area under dose-response curve (HABS [1])	area under dose-response curve (DIPGX37 [2])	area under dose-response curve (DIPGX9 [3])	area under dose-response curve (SUDIPGXIII [4])	area under dose-response curve (HGGX6 [5])	maximal growth inhibition (HGGX42 [6]) [%]	maximal growth inhibition (HGGX39 [7]) [%]	maximal growth inhibition (SUDIPGIV [8]) [%]	maximal growth inhibition (HABS [9]) [%]	maximal growth inhibition (DIPGX37 [10]) [%]	maximal growth inhibition (SUDIPGVI [11]) [%]	maximal growth inhibition (DIPGX9 [12]) [%]	maximal growth inhibition (SUDIPGXIII [13]) [%]	maximal growth inhibition (DIPGX7 [14]) [%]	maximal growth inhibition (DIPGX29 [15]) [%]	maximal growth inhibition (HGGX2 [16]) [%]	maximal growth inhibition (HGGX6 [17]) [%]	maximal growth inhibition (SUDIPGXVII [18]) [%]	maximal growth inhibition (SUDIPGXIX [19]) [%]	maximal growth inhibition (iAstro [20]) [%]	maximal growth inhibition (SUDIPGXXI [21]) [%]	EC50 (log10 M) (HGGX42 [22])	EC50 (log10 M) (HGGX39 [23])	EC50 (log10 M) (SUDIPGIV [24])	EC50 (log10 M) (HABS [25])	EC50 (log10 M) (DIPGX37 [26])	EC50 (log10 M) (SUDIPGVI [27])	EC50 (log10 M) (DIPGX9 [28])	EC50 (log10 M) (SUDIPGXIII [29])	EC50 (log10 M) (DIPGX7 [30])	EC50 (log10 M) (DIPGX29 [31])	EC50 (log10 M) (HGGX2 [32])	EC50 (log10 M) (HGGX6 [33])	EC50 (log10 M) (SUDIPGXVII [34])	EC50 (log10 M) (SUDIPGXIX [35])	EC50 (log10 M) (iAstro [36])	EC50 (log10 M) (SUDIPGXXI [37])
CC(=O)c1cc([N+](=O)[O-])c(Sc2ccc(F)cc2F)s1	26.4	88.6	92.8	74.4	67.9	108	24.6	104	37.7	112	94.1	109	104	117	115	106	104	74.3	118	89.1	113	-4.68	-4.79	-4.71	-4.7	-4.79	-4.76	-4.77	-4.72	-4.76	-4.83	-4.59	-4.65	-4.75	-4.78	-4.85	-4.78
CC(C)(C)c1cnc(CSc2cnc(NC(=O)C3CCNCC3)s2)o1	121	192	281	176	151	87.2	84.8	103	45.9	86.8	82.8	104	92.1	113	84	57	83.9	95.8	116	27.2	110	-6.48	-6.02	-6.15	-6.64	-6.21	-6.37	-6.71	-5.95	-5.84	-6.2	-6.28	-5.8	-6.08	-6.11	-6.22	-6.91
CC(C)c1c2cc(-c3ccnc(NC4CCC(NC5CCOCC5)CC4)n3)ccc2nn1C (stereo not given)	135	225	283	249	210	82	83.2	90.4	44.3	81.2	84	89.5	89.3	93.3	84.4	75.2	78	89.7	91.6	26.6	99.9	-7.07	-6.34	-6.83	-7.04	-6.77	-7	-7.17	-6.79	-6.89	-6.63	-6.63	-6.69	-6.93	-7.04	-7.45	-7.19
CC(C)c1cc(C(=O)N2Cc3ccc(CN4CCN(C)CC4)cc3C2)c(O)cc1O	215	264	281	111	92.3	65	105	56.5	108	92.6	51.6	94.9	51.9	78.3	105	54.4	34.9	67.2	77.2	31.4	105	-5.89	-6.08	-6.68	-6.06	-6.85	-5.95	-6.96	-6.14	-5.07	-5.68	-6.72	-6.73	-6.44	-6.98	-7.01	-6.4
COc1cc(F)ccc1-c1ncnc(Nc2cccc(CS(C)(=N)=O)c2)n1 (stereo not given)	104	128	195	84.4	121	67	68	97.4	56.8	76.2	89.8	103	87	110	78.9	57.3	84.1	94.9	100	24.7	114	-6.01	-5.23	-5.38	-5.83	-5.68	-5.33	-5.9	-4.98	-5.15	-5.41	-5.75	-5.44	-5.15	-5.55	-6.51	-5.99
Cc1ccc2nc(NCCN)c3ncc(C)n3c2c1	54.2	93.7	99.8	89.5	75.1	83.9	57.7	91.6	58.1	86.6	70.6	98.5	73.5	92.7	88.2	45.5	81.8	88.5	85.2	26.6	117	-5	-4.91	-4.93	-4.94	-4.96	-4.96	-5.01	-4.89	-4.87	-4.95	-5.19	-4.92	-4.88	-4.93	-5.39	-5.23
c1ccc2c(-c3cnn4cc(-c5ccc(N6CCNCC6)cc5)cnc34)ccnc2c1	129	163	202	162	146	102	88.9	107	108	99	105	108	105	106	95.2	104	92.8	107	113	93.5	119	-5.68	-5.65	-5.52	-5.19	-5.65	-5.58	-5.68	-5.56	-5.63	-5.73	-5.78	-5.58	-5.61	-5.66	-5.51	-6.41
COc1ccc(C[C@H](NC(=O)[C@H](C)NC(=O)CN2CCOCC2)C(=O)N[C@@H](Cc2ccccc2)C(=O)C2(C)CO2)cc1 (stereo in doubt) [ONX-0914]	206	242	252	230	182	68	91.9	89.7	94.2	95.7	85.8	96.9	89.5	97.5	71.9	87.4	92.2	91.8	95	73.5	93.9	-6.73	-6.36	-6.84	-6.19	-6.53	-6.72	-6.6	-6.56	-6.25	-6.14	-7.17	-5.97	-5.91	-6.58	-7.31	-7.49
CN(C)C/C=C/C(=O)Nc1cc2c(Nc3ccc(F)c(Cl)c3)ncnc2cc1O[C@H]1CCOC1 [AFATINIB]	102	116	144	85.6	86.1	108	93.2	111	101	95.5	111	118	92.1	110	91.2	109	93.5	109	120	92.5	120	-4.86	-4.73	-4.82	-4.84	-4.72	-4.84	-4.88	-4.71	-4.85	-4.73	-4.92	-4.75	-4.81	-4.83	-4.88	-5.4
O=C(Nc1c[nH]nc1-c1nc2ccc(CN3CCOCC3)cc2[nH]1)NC1CC1 [AT9283]	173	132	203	77.4	134	104	91.6	99.7	94	107	101	109	97.8	110	108	96.7	97.8	102	112	27.5	114	-5.4	-6.03	-5.66	-5.83	-4.79	-4.97	-5.66	-4.79	-4.88	-5.17	-4.91	-5.15	-4.95	-5.33	-5.54	-6.69
